According to ChEMBL document CHEMBL1201862, “PubChem BioAssay data set” (2004):
Calls of active or inactive are those of the source. Rule as the data show it: actives have a measured IC50 and inactives only a lower limit.

Experiments:
Format in all cases: functional
[1] = target: T1, Tyrosine-protein phosphatase non-receptor type 7 (Homo sapiens, UniProt P35236)
T1 sequence (P35236 whole entry): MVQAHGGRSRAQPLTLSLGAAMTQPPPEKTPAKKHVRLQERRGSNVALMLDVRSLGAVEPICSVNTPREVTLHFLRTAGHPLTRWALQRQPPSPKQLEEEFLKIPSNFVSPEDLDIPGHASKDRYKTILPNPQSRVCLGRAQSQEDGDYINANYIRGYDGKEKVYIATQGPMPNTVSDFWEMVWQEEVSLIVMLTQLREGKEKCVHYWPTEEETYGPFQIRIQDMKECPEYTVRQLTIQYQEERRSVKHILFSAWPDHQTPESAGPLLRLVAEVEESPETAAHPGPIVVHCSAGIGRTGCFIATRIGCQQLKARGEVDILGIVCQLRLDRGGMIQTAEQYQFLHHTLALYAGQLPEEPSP

[2] = target: T2, Tyrosine-protein phosphatase non-receptor type 22 (Homo sapiens, UniProt Q9Y2R2)
T2 sequence (Q9Y2R2 whole entry): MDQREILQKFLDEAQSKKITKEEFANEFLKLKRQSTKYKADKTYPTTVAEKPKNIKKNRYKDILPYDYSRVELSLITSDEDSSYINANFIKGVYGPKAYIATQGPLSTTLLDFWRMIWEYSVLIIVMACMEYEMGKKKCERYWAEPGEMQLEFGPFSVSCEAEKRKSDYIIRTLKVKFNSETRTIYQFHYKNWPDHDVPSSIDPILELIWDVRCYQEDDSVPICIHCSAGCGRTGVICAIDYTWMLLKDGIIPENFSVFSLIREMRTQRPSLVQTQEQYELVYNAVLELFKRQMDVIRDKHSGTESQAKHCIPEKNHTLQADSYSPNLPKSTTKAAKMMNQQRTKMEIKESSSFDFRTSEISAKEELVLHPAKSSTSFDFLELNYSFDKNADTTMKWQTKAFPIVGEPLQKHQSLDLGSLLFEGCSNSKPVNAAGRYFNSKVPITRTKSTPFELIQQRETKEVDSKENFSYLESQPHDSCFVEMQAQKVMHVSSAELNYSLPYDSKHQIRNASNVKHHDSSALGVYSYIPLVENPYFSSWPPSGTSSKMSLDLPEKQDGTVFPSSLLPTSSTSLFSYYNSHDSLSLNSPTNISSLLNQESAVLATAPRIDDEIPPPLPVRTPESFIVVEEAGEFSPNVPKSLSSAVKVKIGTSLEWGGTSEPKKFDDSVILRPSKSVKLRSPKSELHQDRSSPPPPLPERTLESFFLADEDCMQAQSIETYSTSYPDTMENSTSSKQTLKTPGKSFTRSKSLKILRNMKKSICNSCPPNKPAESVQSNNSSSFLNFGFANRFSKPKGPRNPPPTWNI

[3] = target: T2, Tyrosine-protein phosphatase non-receptor type 22; remark: listed apart in the source

IC50 [1]: > 79.4 µM (inactive)
IC50 [2]: > 79.4 µM (inactive)
IC50 [3]: > 79.4 µM (inactive)
SMILES: CSCC[C@H](NC(=O)Nc1cccc(C(F)(F)F)c1)C(=O)O
